22 molecules from US9273033B2, “Substituted pyridone derivatives as PDE10 inhibitors” (Merck Sharp & Dohme Corp., priority 2012, dated 2016) can be followed below.

One may read the Ki as a dissociation constant, usually derived from enzyme kinetics or from competition with a known ligand.

Molecules are shown by their SMILES.

The test concerns the target human PDE10A2 (Homo sapiens (Human), UniProt Q9Y233). Briefly: PDE10 fluorescence polarization (IMAP FP) inhibition assay. Particulars: human PDE10A2, FAM-labeled cAMP substrate, read-out: PDE10A Ki. Format: biochemical. The method, boiled down:
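Cytoplasmic lysate of AD293 cells transiently expressing human PDE10A2 (diluted to ~20% substrate conversion) incubated 30 min at room temperature with 50 nM FAM-cAMP in Tris pH 7.2 buffer with MgCl2, DTT. Activity read by IMAP fluorescence polarization. 0% inhibition set with 1% DMSO, 100% with reference PDE10 inhibitor.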
(In fluorescence polarisation assays a small probe gives low polarisation when free and higher when bound to something large.)

human PDE10A2, sequence (Q9Y233 267-1055): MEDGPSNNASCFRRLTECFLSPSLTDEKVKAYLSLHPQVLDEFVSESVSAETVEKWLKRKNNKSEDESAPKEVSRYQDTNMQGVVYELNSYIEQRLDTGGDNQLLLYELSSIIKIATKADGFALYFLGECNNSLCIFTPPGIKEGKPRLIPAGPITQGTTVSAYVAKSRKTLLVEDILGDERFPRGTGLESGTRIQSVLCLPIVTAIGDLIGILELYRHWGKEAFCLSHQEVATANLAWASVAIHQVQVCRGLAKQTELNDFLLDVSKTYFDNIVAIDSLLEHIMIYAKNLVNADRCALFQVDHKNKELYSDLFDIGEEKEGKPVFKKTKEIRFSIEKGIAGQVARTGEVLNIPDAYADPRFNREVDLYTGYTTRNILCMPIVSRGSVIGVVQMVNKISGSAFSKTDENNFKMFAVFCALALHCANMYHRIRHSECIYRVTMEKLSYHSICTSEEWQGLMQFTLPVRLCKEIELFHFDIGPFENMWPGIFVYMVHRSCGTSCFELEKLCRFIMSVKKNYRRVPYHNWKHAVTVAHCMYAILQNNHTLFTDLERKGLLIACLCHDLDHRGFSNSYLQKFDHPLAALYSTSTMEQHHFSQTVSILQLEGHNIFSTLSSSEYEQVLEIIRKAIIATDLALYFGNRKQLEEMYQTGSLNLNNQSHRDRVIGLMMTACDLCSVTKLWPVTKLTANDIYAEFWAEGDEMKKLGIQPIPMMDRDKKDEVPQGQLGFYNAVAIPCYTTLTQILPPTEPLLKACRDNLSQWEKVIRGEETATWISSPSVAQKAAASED

As to `COc1ccc([C@H]2C[C@@H]2COc2nc(C)ncc2-c2cc(=O)n(C)cc2C#N)nc1` [Example 89, 4-(4-(((1S,2S)-2-(5-methoxypyridin-2-yl)cyclopropyl)methoxy)-2-methylpyrimidin-5-yl)-1-methyl-6-oxo-1,6-dihydropyridine-3-carbonitrile], the Ki came to 7.39 nM.

As for `Cc1ncc(-c2ccn(C)c(=O)c2)c(OC[C@H]2C[C@@H]2c2ccc(OC(F)F)cn2)n1` [Example 90, 4-(4-(((1S,2S)-2-(5-(difluoromethoxy)pyridin-2-yl)cyclopropyl)methoxy)-2-methylpyrimidin-5-yl)-1-methylpyridin-2(1H)-one], the Ki came to 9.22 nM.

Turning to `Cc1ccc([C@H]2C[C@@H]2COc2nc(C)ncc2-c2ccn(C(C)C)c(=O)c2)nc1` [Example 91, 1-isopropyl-4-(2-methyl-4-(((1S,2S)-2-(5-methylpyridin-2-yl)cyclopropyl)methoxy)pyrimidin-5-yl)pyridin-2(1H)-one], the inhibition constant Ki turned out to be 1.2 nM.

In the case of `COc1ccc([C@H]2C[C@@H]2COc2nc(C)ncc2-c2cc(=O)n(C)cc2SC)nc1` [Example 92, 4-(4-(((1S,2S)-2-(5-methoxypyridin-2-yl)cyclopropyl)methoxy)-2-methylpyrimidin-5-yl)-1-methyl-5-(methylthio)pyridin-2(1H)-one], the Ki came to 12.5 nM.

Turning to `COc1ccc([C@H]2C[C@@H]2COc2nc(C)ncc2-c2cc(=O)n(C)cc2C(F)(F)F)nc1` [Example 93, 4-(4-(((1S,2S)-2-(5-methoxypyridin-2-yl)cyclopropyl)mcthoxy)-2-methylpyrimidin-5-yl)-1-methyl-5-(trifluoromethyl)pyridin-2(1H)-one], the Ki was determined as 3.02 nM.

Regarding `Cc1ncc(-c2ccn(C)c(=O)c2)c(OC[C@@H]2C[C@H]2c2ccc(OC(F)F)cn2)n1` [Example 94, 4-(4-(((1R,2R)-2-(5-(difluoromethoxy)pyridin-2-yl)cyclopropyl)methoxy)-2-methylpyrimidin-5-yl)-1-methylpyridin-2(1H)-one], the Ki worked out at 100 nM.

As for `CCn1ccc(-c2cnc(C)nc2OC[C@H]2C[C@@H]2c2ccc(OC)cn2)cc1=O` [Example 95, 1-ethyl-4-(4-(((1S,2S)-2-(5-methoxypyridin-2-yl)cyclopropyl)methoxy)-2-methylpyrimidin-5-yl)pyridin-2(1H)-one], the Ki worked out at 0.75 nM.

For the molecule `CCn1ccc(-c2cnc(C)nc2OC[C@H]2C[C@@H]2c2ccc3ccccc3n2)cc1=O` [Example 96, 1-ethyl-4-(2-methyl-4-(((lS,2S)-2-(quinolin-2-yl)cyclopropyl)methoxy)pyrimidin-5-yl)pyridin-2(1H)-one], the Ki was found to be 0.021 nM.

Take `Cc1ncc(-c2cc(C)n(C)c(=O)c2)c(OC[C@H]2C[C@@H]2c2ccc3ccccc3n2)n1` [Example 97, 1,6-dimethyl-4-(2-methyl-4-(((1S,2S)-2-(quinolin-2-yl)cyclopropyl)methoxy)pyrimidin-5-yl)pyridin-2(1H)-one]: the Ki is 0.041 nM.

Regarding `COc1ccc([C@H]2C[C@@H]2COc2nc(C)ncc2-c2cc(=O)n(C)cc2S(C)(=O)=O)nc1` [Example 98, 4-(4-(((1S,2S)-2-(5-methoxypyridin-2-yl)cyclopropyl)methoxy)-2-methylpyrimidin-5-yl)-1-methyl-5-(methylsulfonyl)pyridin-2(1H)-one], the Ki amounted to 67.5 nM.

On to `Cc1ccc([C@H]2C[C@@H]2COc2nc(C)ncc2-c2cc(=O)n(C)cc2Cl)nc1` [Example 99, 5-chloro-1-methyl-4-(2-methyl-4-(((1S,2S)-2-(5-methylpyridin-2-yl)cyclopropyl)methoxy)pyrimidin-5-yl)pyridin-2(1H)-one], for which the Ki is 1.11 nM.

Take `COCCn1ccc(-c2cnc(C)nc2OC[C@H]2C[C@@H]2c2ccc3ccccc3n2)cc1=O` [Example 100, 1-(2-methoxyethyl)-4-(2-methyl-4-(((1S,2S)-2-(quinolin-2-yl)cyclopropyl)methoxy)pyrimidin-5-yl)pyridin-2(1H)-one]: the Ki amounted to 0.012 nM.

As to `COCCn1ccc(-c2cnc(C)nc2OC[C@H]2C[C@@H]2c2ccc(C)cn2)cc1=O` [Example 101, 1-(2-methoxyethyl)-4-(2-mcthyl-4-(((1S,2S)-2-(5-methylpyridin-2-yl)cyclopropyl)methoxy)pyrimidin-5-yl)pyridin-2(lH)-one], the Ki worked out at 0.4 nM.

As for `Cc1ncc(-c2cc(=O)n(C)cc2Cl)c(OC[C@H]2C[C@@H]2c2ccc3ccccc3n2)n1` [Example 102, 5-chloro-1-methyl-4-(2-methyl-4-(((1S,2S)-2-(quinolin-2-yl)cyclopropyl)methoxy)pyrimidin-5-yr)pyridin-2(1H)-one], the Ki was 0.04 nM.

As to `Cc1ncc(-c2ccn(C)c(=O)c2)c(OC[C@@H]2C[C@H]2c2ccc(Cl)cn2)n1` [Example 103, 4-(4-(((1R,2R)-2-(5-chloropyridin-2-yl)cyclopropyl)methoxy)-2-methylpyrimidin-5-yl)-1-methylpyridin-2(1H)-one], the Ki stood at 100 nM.

`COc1ccc([C@H]2C[C@@H]2COc2nc(C)ncc2-c2ccn(C)c(=O)c2C#N)nc1` [Example 104, 4-(4-(((1S,2S)-2-(5-methoxypyridin-2-yl)cyclopropyl)methoxy)-2-methylpyrimidin-5-yl)-1-methyl-2-oxo-1,2-dihydropyridine-3-carbonitrile]: the Ki worked out at 8.16 nM.

For the molecule `Cc1ccc([C@H]2C[C@@H]2COc2nc(C)ncc2-c2ccn(CC(F)(F)F)c(=O)c2)nc1` [Example 105, 4-(2-methyl-4-(((1S,2S)-2-(5-methylpyridin-2-yl)cyclopropyl)methoxy)pyrimidin-5-yl)-1-(2,2,2-trifluoroethyl)pyridin-2(1H)-one], the inhibition constant Ki is 0.74 nM.

As to `Cc1ccc([C@H]2C[C@@H]2COc2nc(C)ncc2-c2ccn(CC(F)F)c(=O)c2)nc1` [Example 106, 1-(2,2-difluoroethyl)-4-(2-methyl-4-(((1S,2S)-2-(5-methylpyridin-2-yl)cyclopropyl)methoxy)pyrimidin-5-yl)pyridin-2(1H)-one], the Ki came to 1.81 nM.

Take `Cc1ncc(-c2ccn(C)c(=O)c2)c(OC[C@H]2C[C@@H]2c2ccc(Cl)cn2)n1` [Example 107, 4-(4-(((1S,2S)-2-(5-chloropyridin-2-yl)cyclopropyl)methoxy)-2-methylpyrimidin-5-yl)-1-methylpyridin-2(1H)-one]: the Ki was 14.7 nM.

Consider `CCOC(=O)c1cn(C)c(=O)cc1-c1cnc(C)nc1OC[C@H]1C[C@@H]1c1ccc(OC)cn1` [Example 108, ethyl 4-(4-(((1S,2S)-2-(5-methoxypyridin-2-yl)cyclopropyl)methoxy)-2-methylpyrimidin-5-yl)-1-methyl-6-oxo-1,6-dihydropyridine-3-carboxylate], for which the Ki was determined as 100 nM.

As for `COc1ccc([C@H]2C[C@@H]2COc2nc(C)ncc2-c2ccn(CC#N)c(=O)c2)nc1` [Example 111, 2-(4-(4-(((1S,2S)-2-(5-methoxypyridin-2-yl)cyclopropyl)methoxy)-2-methylpyrimidin-5-yl)-2-oxopyridin-1(2H)-yl)acetonitrile], the inhibition constant (Ki) amounted to 0.441 nM.

With `COc1ccc([C@H]2C[C@@H]2COc2nc(C)ncc2-c2ccn(CCC#N)c(=O)c2)nc1` [Example 112, 3-(4-(4-(((1S,2S)-2-(5-methoxypyridin-2-yl)cyclopropyl)methoxy)-2-methylpyrimidin-5-yl)-2-oxopyridin-1(2H)-yl)propanenitrile], the inhibitory constant (Ki) was found to be 0.944 nM.
